# According to patent US8252751B2, “Organic compounds” (Novartis AG, priority 2007, dated 2012):
# Where “and” joins values, the source holds several entries; their conditions need not be identical. Equal values may be shown once. Read-outs that look alike come from different tables or passages of the source.
# Key:
# Assay type in all cases: biochemical
# [1] = molecular target: T1, human DPP-8 (Homo sapiens, UniProt Q6V1X1); experiment: DPP-8 (dipeptidyl-peptidase 8) IC50 assay, Gly-Pro-AMC fluorescence intensity
# T1 construct: human DPP-8 covering amino acid 1-882; made in house; host or cells: insect cells (baculovirus expression system)
# From the text: (§1) For fluorescence intensity (FI) measurements with AMC as dye, an Ultra Evolution reader (TECAN, Maennedorf, Switzerland) was used. The instrument was equipped with a combination of a 350 nm (20 nm bandwidth) and a 500 nm (25 nm bandwidth) bandpath filter for fluorescence excitation and emission acquisition, respectively. To increase the signal:background ratio, an appropriate dichroic mirror was employed. All filters and the dichroic mirror were purchased from TECAN.
# (§2) The data from the independent assay runs was averaged and plotted using program of Origin 7.5SR6 (OriginLab Corporation, Northampton, Mass., USA). Origin's built-in non-linear regression routine was used to fit the averaged data to the ‘logistics’ function y=A2+(A1−A2)/(1+(x/IC50)^p) (Equation 1) where y is the %-inhibition at the inhibitor concentration, x. A1 is the lowest inhibition value, i.e. 0%, and A2 the maximum inhibition value, i.e. 100%. The exponent, p, is the Hill coefficient. B. Determination of IC50 Values […]
# (§3) For the determination of IC50 values, the assays were performed at room temperature in 384-well plates. All final assay volumes were 30 μl. Test compounds were dissolved in 90% (v/v) DMSO/water and diluted in water (containing 0.05% (w/v) CHAPS) to 3-times the desired assay concentration. For each assay, 10 μl water/CHAPS (±test compound) were added per well, followed by 10 μl protease solution (diluted with assay buffer; for final assay concentration cf. § Assay conditions). After 1 hour of incubation at room temperature, the reaction was started by addition of 10 μl substrate solution (for final concentrations cf. § Assay conditions). The eleven final compound concentrations were either 0.9 nM, 3 nM, 9 nM, 30 nM, 90 nM, 300 nM, 900 nM, 3 μM, 9 μM, 30 μM and 90 μM or 3 nM, 10 nM, 30 nM, 100 nM, 300 nM, 1 μM, 3 μM, 10 μM, 30 μM, 100 μM and 300 μM. The effect of the compound on the enzymatic activity was obtained from the linear progress curves and determined from two readings, the first one taken directly after the addition of substrate (t=0 min) and the second one after 1 hour (t=60 min). The IC50 value was calculated from the plot of percentage of inhibition vs. inhibitor concentration using non-linear regression analysis software (XLfit, Vers. 4.0; ID Business Solution Ltd., Guildford, Surrey, UK).
# (§4) 4.—DPP-8 (dipeptidyl-peptidase 8) enzyme: human DPP-8 covering amino acid 1-882; expressed in and purified from insect cells (baculovirus expression system) substrate: Gly-Pro-AMC, purchased from Bachem (www.bachem.com), catalogue number I-1225 enzyme concentration: 0.05 nM substrate concentration: 10 μM assay buffer: 25 mM Tris, pH 7.4, 140 mM NaCl, 10 mM KCl, 0.05% (w/v) CHAPS
# [2] = molecular target: T2, human DPP-IV (Homo sapiens, UniProt P27487); experiment: DPP-IV (dipeptidyl peptidase IV) IC50 assay, Gly-Pro-AMC fluorescence intensity
# T2 construct: human DPP-IV covering amino acid 39-766; made in house; host or cells: insect cells (baculovirus expression system)
# From the text: as §1, §2, §3
# as §4, with “2.—DPP-IV (dipeptidyl peptidase IV) enzyme:” for “4.—DPP-8 (dipeptidyl-peptidase 8) enzyme:”, “human DPP-IV” for “human DPP-8”, “acid 39-766;” for “acid 1-882;”, “concentration: 0.01” for “concentration: 0.05”
# [3] = molecular target: T3, human DPP-2 (Homo sapiens, UniProt Q9UHL4); experiment: DPP-2 (dipeptidyl peptidase 2) IC50 assay, Nle-Pro-AMC fluorescence intensity
# T3 construct: human DPP-2 covering amino acid 30-492; made in house; host or cells: insect cells (baculovirus expression system)
# From the text: as §1
# as §2, with “x.” for “x. A1 is the lowest inhibition value, i.e. 0%, and A2 the maximum inhibition value, i.e. 100%. The exponent, p, is the Hill coefficient. B. Determination of IC50 Values”
# For the determination of IC50 values, the assays were performed at room temperature in 384-well plates. […] The effect of the compound on the enzymatic activity was obtained from the linear progress curves and determined from two readings, the first one taken directly after the addition of substrate (t=0 min) and the second one after 1 hour (t=60 min). The IC50 value was calculated from the plot of percentage of inhibition vs. inhibitor concentration using non-linear regression analysis software (XLfit, Vers. 4.0; ID Business Solution Ltd., Guildford, Surrey, UK). […]
# [4] = molecular target: T4, human DPP-9 (Homo sapiens, UniProt Q86TI2); experiment: DPP-9 (dipeptidyl-peptidase 9) IC50 assay, Gly-Pro-AMC fluorescence intensity
# T4 construct: human DPP-9 covering amino acid 1-863; made in house; host or cells: Pichia pastoris
# From the text: as §1, §2, §3
# 5.—DPP-9 (dipeptidyl-peptidase 9) enzyme: human DPP-9 covering amino acid 1-863; expressed in and purified from Pichia pastoris substrate: Gly-Pro-AMC, purchased from Bachem (www.bachem.com), catalogue number I-1225 enzyme concentration: 1 nM substrate concentration: 10 μM assay buffer: 25 mM Tris, pH 7.4, 140 mM NaCl, 10 mM KCl, 0.05% (w/v) CHAPS
# [5] = molecular target: T5, endogenous human DPP-IV from plasma sample (Homo sapiens, UniProt P27487); experiment: human plasma DPP-IV IC50 assay, (H-Ala-Pro)2-Rh110 fluorescence intensity; settings: for IC50: 50% plasma
# T5 construct: endogenous human DPP-IV from plasma sample, male donors; from tissue; host or cells: human blood plasma, male donors, diluted to 50% plasma content
# From the text: FI measurements using a Rh110 dye were done with a Safire2 reader (TECAN, Maennedorf, Switzerland). The Safire2 is a monochomator-based instrument and wavelengths of 485 nm and 535 nm were taken for fluorescence excitation and emission acquisition, respectively. The bandwidths were set to 20 nm in both the excitation and the emission path.
# as §2
# as §3, with “The eleven final compound concentrations were either 0.9 nM, 3 nM, 9 nM, 30 nM, 90 nM, 300 nM, 900 nM, 3 μM, 9 μM, 30 μM and 90 μM or 3 nM, 10 nM, 30 nM, 100 nM, 300 nM, 1 μM, 3 μM, 10 μM, 30 μM, 100 μM and 300 μM.” left out, “UK). […]” for “UK).”
# [6] = molecular target: T6, human PEP (Homo sapiens, UniProt P48147); experiment: PEP (prolyl-endopeptidase) IC50 assay, Z-Gly-Pro-AMC fluorescence intensity
# T6 construct: human PEP covering amino acid 1-710; made in house; host or cells: Pichia pastoris
# T6 sequence (P48147 1-710): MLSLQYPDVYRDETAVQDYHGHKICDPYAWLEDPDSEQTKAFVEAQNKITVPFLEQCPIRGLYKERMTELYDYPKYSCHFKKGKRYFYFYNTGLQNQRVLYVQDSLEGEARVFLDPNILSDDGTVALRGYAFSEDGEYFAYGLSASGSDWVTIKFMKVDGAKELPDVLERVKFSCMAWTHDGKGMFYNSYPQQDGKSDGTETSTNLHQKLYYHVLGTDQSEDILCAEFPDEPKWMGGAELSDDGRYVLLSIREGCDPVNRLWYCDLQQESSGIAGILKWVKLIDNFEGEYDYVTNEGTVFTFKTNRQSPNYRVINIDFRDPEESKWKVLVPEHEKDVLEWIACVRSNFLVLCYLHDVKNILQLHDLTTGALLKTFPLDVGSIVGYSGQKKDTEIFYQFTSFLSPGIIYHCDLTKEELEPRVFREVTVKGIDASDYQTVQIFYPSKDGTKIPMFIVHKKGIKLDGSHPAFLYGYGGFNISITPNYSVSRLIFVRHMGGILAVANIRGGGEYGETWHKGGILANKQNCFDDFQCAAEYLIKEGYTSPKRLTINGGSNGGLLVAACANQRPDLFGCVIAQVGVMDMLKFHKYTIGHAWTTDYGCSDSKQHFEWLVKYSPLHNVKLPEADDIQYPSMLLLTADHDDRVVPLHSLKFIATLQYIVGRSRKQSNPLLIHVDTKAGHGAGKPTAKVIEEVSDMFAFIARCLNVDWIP
# From the text: as §1, §2
# as §3, with “The eleven final compound concentrations were either 0.9 nM, 3 nM, 9 nM, 30 nM, 90 nM, 300 nM, 900 nM, 3 μM, 9 μM, 30 μM and 90 μM or 3 nM, 10 nM, 30 nM, 100 nM, 300 nM, 1 μM, 3 μM, 10 μM, 30 μM, 100 μM and 300 μM.” left out, “UK). […]” for “UK).”
# [7] = molecular target: T7, human FAP (Homo sapiens, UniProt Q12884); experiment: FAP (fibroblast activation protein, alpha) IC50 assay, Z-Gly-Pro-AMC fluorescence intensity
# T7 construct: human FAPa covering amino acid 27-760 excluding the cytoplasmic and transmebrane domains; made in house; host or cells: insect cells (baculovirus expression system)
# T7 sequence (Q12884 27-760): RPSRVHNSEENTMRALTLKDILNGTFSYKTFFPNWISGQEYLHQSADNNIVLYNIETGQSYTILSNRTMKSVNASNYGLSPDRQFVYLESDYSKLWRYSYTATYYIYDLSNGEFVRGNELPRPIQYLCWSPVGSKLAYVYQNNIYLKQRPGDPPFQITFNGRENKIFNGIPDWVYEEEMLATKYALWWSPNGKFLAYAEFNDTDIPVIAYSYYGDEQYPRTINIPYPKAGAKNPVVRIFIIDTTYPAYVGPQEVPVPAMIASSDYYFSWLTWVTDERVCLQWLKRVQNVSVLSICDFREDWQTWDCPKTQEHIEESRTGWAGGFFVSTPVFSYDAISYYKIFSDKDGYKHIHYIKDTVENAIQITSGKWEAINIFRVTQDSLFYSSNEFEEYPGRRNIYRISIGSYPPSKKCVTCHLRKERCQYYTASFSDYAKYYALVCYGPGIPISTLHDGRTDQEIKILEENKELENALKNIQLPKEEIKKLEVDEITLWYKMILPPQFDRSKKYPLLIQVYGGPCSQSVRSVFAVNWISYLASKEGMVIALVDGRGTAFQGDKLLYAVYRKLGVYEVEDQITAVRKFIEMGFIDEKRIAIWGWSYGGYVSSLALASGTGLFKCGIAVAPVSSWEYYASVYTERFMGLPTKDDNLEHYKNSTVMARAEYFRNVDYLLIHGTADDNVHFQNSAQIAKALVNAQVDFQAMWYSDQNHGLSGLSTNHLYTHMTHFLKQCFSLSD
# From the text: as §1
# The data from the independent assay runs was averaged and plotted using program of Origin 7.5SR6 (OriginLab Corporation, Northampton, Mass., USA). Origin's built-in non-linear regression routine was used to fit the averaged data to the ‘logistics’ function y=A2+(A1−A2)/(1+(x/IC50)^p) (Equation 1) where y is the %-inhibition at the inhibitor concentration, x. A1 is the lowest inhibition value, i.e. 0%, and A2 the maximum inhibition value, i.e. 100%. The exponent, p, is the Hill coefficient. B. Determination of IC50 Values
# as §3, with “The eleven final compound concentrations were either 0.9 nM, 3 nM, 9 nM, 30 nM, 90 nM, 300 nM, 900 nM, 3 μM, 9 μM, 30 μM and 90 μM or 3 nM, 10 nM, 30 nM, 100 nM, 300 nM, 1 μM, 3 μM, 10 μM, 30 μM, 100 μM and 300 μM.” left out, “UK). […]” for “UK).”
# [8] = individual experiments 1-4, read-out: IC50 value
# [9] = mean of 4 experiments, read-out: Mean IC50 value ± SD
# T4 sequence (Q86TI2 whole entry): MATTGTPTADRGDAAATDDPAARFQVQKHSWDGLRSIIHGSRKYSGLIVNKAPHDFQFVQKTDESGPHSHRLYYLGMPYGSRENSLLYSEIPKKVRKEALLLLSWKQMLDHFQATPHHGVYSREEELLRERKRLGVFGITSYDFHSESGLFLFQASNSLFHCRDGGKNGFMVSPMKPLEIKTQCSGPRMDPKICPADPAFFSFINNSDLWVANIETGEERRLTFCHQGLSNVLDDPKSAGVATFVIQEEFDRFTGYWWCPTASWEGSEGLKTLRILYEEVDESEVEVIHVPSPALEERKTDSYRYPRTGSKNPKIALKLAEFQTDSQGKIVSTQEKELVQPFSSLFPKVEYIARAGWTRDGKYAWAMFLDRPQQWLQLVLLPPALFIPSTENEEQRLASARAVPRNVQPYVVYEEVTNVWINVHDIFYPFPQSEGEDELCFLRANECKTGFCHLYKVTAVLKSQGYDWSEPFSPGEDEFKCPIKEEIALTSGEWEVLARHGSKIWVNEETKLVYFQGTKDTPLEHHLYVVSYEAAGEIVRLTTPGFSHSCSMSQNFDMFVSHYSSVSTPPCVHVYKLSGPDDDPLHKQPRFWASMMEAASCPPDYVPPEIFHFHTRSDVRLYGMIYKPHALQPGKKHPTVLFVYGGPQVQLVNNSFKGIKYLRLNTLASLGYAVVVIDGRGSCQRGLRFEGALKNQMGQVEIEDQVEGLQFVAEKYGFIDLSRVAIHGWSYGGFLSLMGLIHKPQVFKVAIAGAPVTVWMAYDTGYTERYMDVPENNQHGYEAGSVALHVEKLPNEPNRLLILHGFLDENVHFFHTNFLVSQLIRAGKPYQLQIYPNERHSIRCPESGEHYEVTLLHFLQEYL
# T2 sequence (P27487 39-766): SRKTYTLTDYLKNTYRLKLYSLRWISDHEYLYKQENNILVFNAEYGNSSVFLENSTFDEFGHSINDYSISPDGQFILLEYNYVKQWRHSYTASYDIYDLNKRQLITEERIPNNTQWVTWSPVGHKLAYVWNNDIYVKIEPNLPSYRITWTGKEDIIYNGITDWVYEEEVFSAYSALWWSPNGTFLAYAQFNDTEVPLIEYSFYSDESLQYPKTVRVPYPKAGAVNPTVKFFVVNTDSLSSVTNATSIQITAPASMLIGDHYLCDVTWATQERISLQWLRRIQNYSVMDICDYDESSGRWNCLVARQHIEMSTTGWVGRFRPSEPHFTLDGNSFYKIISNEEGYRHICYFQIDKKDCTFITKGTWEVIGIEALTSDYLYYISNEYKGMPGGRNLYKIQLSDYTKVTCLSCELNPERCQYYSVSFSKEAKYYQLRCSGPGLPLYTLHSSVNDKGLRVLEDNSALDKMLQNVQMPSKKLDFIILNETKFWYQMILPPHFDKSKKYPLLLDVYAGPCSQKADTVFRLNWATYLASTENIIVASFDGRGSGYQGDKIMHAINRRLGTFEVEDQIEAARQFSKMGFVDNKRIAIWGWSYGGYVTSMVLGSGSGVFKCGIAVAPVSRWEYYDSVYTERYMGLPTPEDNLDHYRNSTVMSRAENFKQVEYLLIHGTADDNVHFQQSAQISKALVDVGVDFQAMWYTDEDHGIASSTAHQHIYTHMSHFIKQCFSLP
# T5 sequence (P27487 39-766 limits assumed): as the sequence (P27487 39-766) above
# T1 sequence (Q6V1X1 17-898): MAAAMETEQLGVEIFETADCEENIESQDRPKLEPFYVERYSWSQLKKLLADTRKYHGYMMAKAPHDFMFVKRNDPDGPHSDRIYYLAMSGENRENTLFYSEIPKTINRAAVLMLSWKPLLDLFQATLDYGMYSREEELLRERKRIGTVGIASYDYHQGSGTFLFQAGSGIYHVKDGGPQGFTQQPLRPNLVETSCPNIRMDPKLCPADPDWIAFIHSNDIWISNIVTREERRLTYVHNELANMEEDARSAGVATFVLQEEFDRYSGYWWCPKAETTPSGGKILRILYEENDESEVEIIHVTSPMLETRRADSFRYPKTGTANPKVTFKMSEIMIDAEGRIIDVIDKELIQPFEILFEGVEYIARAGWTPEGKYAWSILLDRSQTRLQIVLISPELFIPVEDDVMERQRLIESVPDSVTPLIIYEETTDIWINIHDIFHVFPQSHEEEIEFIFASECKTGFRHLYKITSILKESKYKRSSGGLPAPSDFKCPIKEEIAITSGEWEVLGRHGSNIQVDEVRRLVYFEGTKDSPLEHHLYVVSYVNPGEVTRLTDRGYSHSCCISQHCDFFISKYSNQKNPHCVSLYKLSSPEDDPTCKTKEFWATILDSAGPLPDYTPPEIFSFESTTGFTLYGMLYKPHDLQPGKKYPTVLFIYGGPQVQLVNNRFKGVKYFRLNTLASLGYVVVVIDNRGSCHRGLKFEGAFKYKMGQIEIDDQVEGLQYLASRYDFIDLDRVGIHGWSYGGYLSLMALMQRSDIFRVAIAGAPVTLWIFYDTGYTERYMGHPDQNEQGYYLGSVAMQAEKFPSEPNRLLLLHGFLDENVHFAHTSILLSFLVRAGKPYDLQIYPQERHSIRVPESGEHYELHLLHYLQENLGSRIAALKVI
smiles,measurement,setting,value
N#C[C@@H]1CCCN1C(=O)CNC12CC3CC(C1)CC(O[C@@H]1O[C@H](C(=O)O)[C@@H](O)[C@H](O)[C@H]1O)(C3)C2 [NVP-BQS867-NX-2],potency at inhibiting DPP-8 enzyme,[1]; compared with vildagliptin,less potent
same,Hill coefficient,"[1]; human DPP-8, individual experiments 1-4",1.2 (3×) and 1.3
same,IC50,"[1]; human DPP-8, individual experiments 1-4, read-out: IC50 value",8.3 µM and 8 µM and 8.1 µM and 7.6 µM
same,IC50,"[1]; human DPP-8, mean of 4 experiments, read-out: Mean IC50 value ± SD",8 ± 0.3 µM
same,potency at inhibiting the DPP-4 enzyme,[2]; compared with vildagliptin,equally potent to vildagliptin
same,Hill coefficient,"[2]; human DPP-IV, individual experiments 1-4",0.7 and 0.9 and 1.3 and 1.1
same,IC50,"[2]; human DPP-IV, individual experiments 1-4, read-out: IC50 value",0.004 µM and 0.006 µM and 0.007 µM and 0.005 µM
same,IC50,"[2]; human DPP-IV, mean of 4 experiments, read-out: Mean IC50 value ± SD",0.006 ± 0.001 µM
same,IC50,[3]; [8],> 300 µM
same,IC50,[3]; [9],> 90 µM
same,potency at inhibiting DPP-9 enzyme,[4]; compared with vildagliptin,less potent
same,Hill coefficient,"[4]; human DPP-9, individual experiments 1-4",1.0 (2×) and 0.9 (2×)
same,IC50,"[4]; human DPP-9, individual experiments 1-4, read-out: IC50 value",0.7 µM and 0.4 µM and 0.6 µM
same,IC50,"[4]; human DPP-9, mean of 4 experiments, read-out: Mean IC50 value ± SD",0.5 ± 0.2 µM
same,IC50,[5]; [8],0.003 µM and 0.004 µM
same,IC50,[5]; [9],0.004 ± 0.001 µM
same,Hill coefficient,[5]; individual experiments 1-4,1.4 (2×) and 1.2 (2×)
same,Hill coefficient,[6]; individual experiments 1-4,0.7 and 1.2 and 0.8 and 0.6
same,IC50,[6]; [8],52 µM and 15 µM and 18 µM and 14 µM
same,IC50,[6]; [9],25 ± 18 µM
same,Hill coefficient,[7]; individual experiments 1-4,1.3 and 0.8 (2×) and 0.7
same,IC50,[7]; [8],43 µM and 16 µM and 19 µM
same,IC50,[7]; [9],24 ± 13 µM
